Laboratory results from patent US7745483B2, “2-Halofuryl-thienyl-3-carboxamides” (Bayer CropScience AG, priority 2004, dated 2010).

Key:
Alternaria solani = assay: Alternaria test (tomato)/protective; assay type: in vivo; details: protective, application rate 750 g/ha, evaluation 7 days after inoculation
Method: [table] To produce a suitable preparation of active compound, 1 part by weight of active compound is mixed with the stated amounts of solvent and emulsifier, and the concentrate is diluted with water to the desired concentration. To test for protective activity, young tomato plants are sprayed with the preparation of active compound at the stated application rate. One day after the treatment, the plants are inoculated with a spore suspension of Alternaria solani and then remain at 100% relative humidity and at 20° C. for 24 hours. The plants then remain at 96% relative atmospheric humidity and a temperature of 20° C. Evaluation is carried out 7 days after the inoculation. 0% means an efficacy which corresponds to that of the control, whereas an efficacy of 100% means that no infection is observed.

Puccinia recondita = assay: Puccinia test (wheat)/protective; assay type: in vivo; details: 240 h, protective, application rate 500 g/ha, evaluation 10 days after inoculation, read-out: Efficacy in %
Method: [table] To produce a suitable preparation of active compound, 1 part by weight of active compound is mixed with the stated amounts of solvent and emulsifier, and the concentrate is diluted with water to the desired concentration. To test for protective activity, young plants are sprayed with the preparation of active compound at the stated application rate. After the spray coating has dried on, the plants are sprayed with a conidia suspension Puccinia recondita. The plants remain in an incubation cabin at 20° C. and 100% relative atmospheric humidity for 48 hours. The plants are then placed in a greenhouse at a temperature of about 20° C. and a relative atmospheric humidity of 80% to promote the development of rust pustules. Evaluation is carried out 10 days after the inoculation. 0% means an efficacy which corresponds to that of the control, whereas an efficacy of 100% means that no infection is observed.

## CC(C)CC(C)c1ccccc1NC(=O)c1ccoc1I (centres unmarked) [drawing 290]
Alternaria solani
  Efficacy in %: 94%

## CC(C[Si](C)(C)C)c1ccccc1NC(=O)c1ccoc1I (centres unmarked) [drawing 275]
Puccinia recondita
  pest or weed control at 500 g/ha: 100%

## CO/N=C/c1ccc(-c2ccccc2NC(=O)c2ccsc2I)cc1F [drawing 280]
Puccinia recondita
  pest or weed control at 500 g/ha: 100%

## CC(CC(C)(C)C)c1ccccc1NC(=O)c1ccsc1Br (centres unmarked) [drawing 283]
Puccinia recondita
  pest or weed control at 500 g/ha: 100%

## CC(C)(C)CCc1ccccc1NC(=O)c1ccsc1I [drawing 263]
Puccinia recondita
  pest or weed control at 500 g/ha: 97%

## C[Si](C)(C)CCc1ccccc1NC(=O)c1ccsc1I [drawing 262]
Puccinia recondita
  pest or weed control at 500 g/ha: 97%

## O=C(Nc1ccccc1-c1ccc(Cl)c(Cl)c1)c1ccsc1I [drawing 271]
Puccinia recondita
  pest or weed control at 500 g/ha: 100%

## CC(C[Si](C)(C)C)c1cc(F)ccc1NC(=O)c1ccsc1I (centres unmarked) [drawing 287]
Puccinia recondita
  pest or weed control at 500 g/ha: 100%

## CC(C)CC(C)c1cc(F)ccc1NC(=O)c1ccsc1I (centres unmarked) [drawing 279]
Puccinia recondita
  pest or weed control at 500 g/ha: 100%

## O=C(Nc1ccccc1-c1ccc(Br)cc1)c1ccoc1I [drawing 268]
Puccinia recondita
  pest or weed control at 500 g/ha: 100%

## O=C(Nc1ccccc1-c1ccc(Br)c(F)c1)c1ccsc1I [drawing 264]
Puccinia recondita
  pest or weed control at 500 g/ha: 100%

## O=C(Nc1ccccc1-c1ccc(F)c(Cl)c1)c1ccsc1I [drawing 286]
Puccinia recondita
  pest or weed control at 500 g/ha: 100%

## CC(C)(C)CCc1ccccc1NC(=O)c1ccsc1I [drawing 288]
Alternaria solani
  Efficacy in %: 94%

## O=C(Nc1ccccc1-c1ccc(Cl)c(F)c1)c1ccsc1Br [drawing 285]
Puccinia recondita
  pest or weed control at 500 g/ha: 100%

## O=C(Nc1ccccc1-c1ccc(Cl)c(F)c1)c1ccsc1I [drawing 274]
Puccinia recondita
  pest or weed control at 500 g/ha: 94%

## CC(C)CC(C)c1sccc1NC(=O)c1ccsc1I (centres unmarked) [drawing 281]
Puccinia recondita
  pest or weed control at 500 g/ha: 100%

## O=C(Nc1ccccc1-c1ccc(Cl)c(F)c1)c1ccoc1I [drawing 270]
Puccinia recondita
  pest or weed control at 500 g/ha: 100%

## C=C(CC(C)(C)C)c1ccccc1NC(=O)c1ccsc1I [drawing 273]
Puccinia recondita
  pest or weed control at 500 g/ha: 93%

## O=C(Nc1ccc(F)cc1-c1ccc(Cl)c(Cl)c1)c1ccsc1I [drawing 277]
Puccinia recondita
  pest or weed control at 500 g/ha: 100%

## O=C(Nc1ccccc1-c1ccc(Br)c(Cl)c1)c1ccsc1I [drawing 265]
Puccinia recondita
  pest or weed control at 500 g/ha: 100%

## CC1CC(C)(C)c2cccc(NC(=O)c3ccsc3I)c21 (centres unmarked) [drawing 278]
Puccinia recondita
  pest or weed control at 500 g/ha: 100%

## CC(C)CC(C)c1ccccc1NC(=O)c1ccsc1I (centres unmarked) [drawing 289]
Alternaria solani
  Efficacy in %: 100%

## O=C(Nc1ccccc1-c1ccc(Cl)c(Cl)c1)c1ccsc1Br [drawing 284]
Puccinia recondita
  pest or weed control at 500 g/ha: 100%

## CC(C)CC(C)c1ccccc1NC(=O)c1ccoc1I (centres unmarked) [drawing 261]
Puccinia recondita
  pest or weed control at 500 g/ha: 100%

## CC(C)CC(C)c1ccccc1NC(=O)c1ccsc1I (centres unmarked) [drawing 260]
Puccinia recondita
  pest or weed control at 500 g/ha: 100%

## CC(C[Si](C)(C)C)c1ccccc1NC(=O)c1ccsc1I (centres unmarked) [drawing 276]
Puccinia recondita
  pest or weed control at 500 g/ha: 100%
